Measurements: ChEMBL document CHEMBL3232849, “Structure-activity relationship studies toward the discovery of selective apelin receptor agonists” (J Med Chem, 2014)
Active and inactive are the calls of the source. The rule behind the calls is not given here.

Experiments:
[1] = target: T1, Apelin receptor (Rattus norvegicus) (UniProt Q9JHG3); assay: Agonist activity at rat apelin receptor expressed in CHO cell membranes coexpressing EGFP assessed as receptor internalization at 100 uM after 20 mins by confocal microscopic analysis; format: cell-based
T1 sequence (whole entry): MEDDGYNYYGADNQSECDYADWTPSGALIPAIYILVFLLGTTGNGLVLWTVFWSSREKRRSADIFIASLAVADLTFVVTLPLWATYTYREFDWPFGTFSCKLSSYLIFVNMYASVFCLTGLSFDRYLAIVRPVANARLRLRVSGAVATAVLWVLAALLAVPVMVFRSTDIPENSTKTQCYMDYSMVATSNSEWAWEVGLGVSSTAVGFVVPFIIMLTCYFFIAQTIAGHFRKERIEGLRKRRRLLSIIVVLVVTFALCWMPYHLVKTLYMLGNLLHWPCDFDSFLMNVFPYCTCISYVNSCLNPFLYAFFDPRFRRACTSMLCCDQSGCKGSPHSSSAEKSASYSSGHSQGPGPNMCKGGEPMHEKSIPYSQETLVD

[2] = target: T2, Apelin receptor (Homo sapiens, UniProt P35414); assay: Displacement of [125I]-pE13F from human apelin receptor expressed in CHO cell membranes after 1 hr by gamma counting analysis
T2 sequence (P35414 whole entry): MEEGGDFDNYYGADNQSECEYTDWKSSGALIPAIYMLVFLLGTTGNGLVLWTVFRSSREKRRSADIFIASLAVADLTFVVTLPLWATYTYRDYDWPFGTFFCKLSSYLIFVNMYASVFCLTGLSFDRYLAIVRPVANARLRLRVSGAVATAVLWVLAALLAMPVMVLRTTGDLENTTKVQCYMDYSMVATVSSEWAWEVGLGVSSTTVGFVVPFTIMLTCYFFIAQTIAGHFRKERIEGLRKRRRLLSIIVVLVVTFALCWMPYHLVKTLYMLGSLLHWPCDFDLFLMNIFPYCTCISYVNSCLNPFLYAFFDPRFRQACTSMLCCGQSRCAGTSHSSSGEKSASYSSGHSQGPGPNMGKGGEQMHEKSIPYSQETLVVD

[3] = target: T3, Type-1 angiotensin II receptor (Homo sapiens, UniProt P30556); assay: Displacement of [125I]-angiotensin 2 from human angiotensin 2 type-1 receptor expressed in CHO cell membranes after 1 hr by gamma counting analysis
T3 sequence (P30556 whole entry): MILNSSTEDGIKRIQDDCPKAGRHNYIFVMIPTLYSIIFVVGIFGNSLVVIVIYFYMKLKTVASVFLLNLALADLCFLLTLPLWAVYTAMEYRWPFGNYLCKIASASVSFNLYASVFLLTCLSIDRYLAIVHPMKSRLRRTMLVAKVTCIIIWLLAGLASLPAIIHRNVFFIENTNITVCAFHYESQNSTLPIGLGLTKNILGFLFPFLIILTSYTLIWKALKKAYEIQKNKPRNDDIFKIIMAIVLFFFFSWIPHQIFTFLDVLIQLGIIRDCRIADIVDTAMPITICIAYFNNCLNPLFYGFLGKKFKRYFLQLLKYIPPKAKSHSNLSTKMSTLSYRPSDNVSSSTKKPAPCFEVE

[4] = target: T4, Apelin receptor (Rattus norvegicus, UniProt Q9JHG3); assay: (§1) Agonist activity at rat apelin receptor expressed in CHO cell membranes coexpressing EGFP assessed as inhibition of forskolin-induced cAMP production after 30 mins by fluorescence analysis; format: functional, cell-based
T4 sequence (Q9JHG3 whole entry): T1 sequence (whole entry)

[5] = Half life in mouse plasma at 5 uM at 37 degC by LC-MS analysis; format: ADME, cell-free
[6] = target: T1, Apelin receptor (Rattus norvegicus); assay: Agonist activity at rat apelin receptor expressed in CHO cell membranes coexpressing EGFP assessed as receptor internalization at 100 nM after 20 mins by confocal microscopic analysis; format: cell-based
[7] = target: T1, Apelin receptor (Rattus norvegicus); assay: as §1; format: functional, cell-based
[8] = target: T1, Apelin receptor (Rattus norvegicus); assay: Agonist activity at rat apelin receptor expressed in CHO cell membranes coexpressing EGFP assessed as inhibition of forskolin-induced cAMP production after 30 mins by fluorescence analysis relative to control; format: functional, cell-based
[9] = Dissociation constant, pKa of the compound in water at 2 mM by potentiometric titration analysis; format: physicochemical

Row | SMILES | Activity [1] | Ki [2] [µM] | further results
1 | CCN(CC)c1ccc2c(-c3ccc(S(=O)(=O)NCCCC[C@H](NC(=O)Cc4csc(=N)n4C)C(=O)N[C@@H](Cc4cn(Cc5ccccc5)c[n+]4C)C(=O)NCC4CCN(C)CC4)cc3S(=O)(=O)[O-])c3ccc(=[N+](CC)CC)cc-3oc2c1 | Active | 0.18 | 
2 | CCN(CC)c1ccc2c(-c3ccc(S(=O)(=O)NCCCCCCCCCCCCNC(=O)NCCCC[C@H](NC(=O)Cc4csc(=N)n4C)C(=O)N[C@@H](Cc4cn(Cc5ccccc5)c[n+]4C)C(=O)NC4CCN(C)CC4)cc3S(=O)(=O)O)c3ccc(=[N+](CC)CC)cc-3oc2c1 [listing 1 of 2 here] |  | 0.69 | Ki [3]: 2.23 µM; IC50 [4]: 4.3 µM; half-life at 5 µM [5]: > 10 h
3 | CSCC[C@H](NC(=O)[C@@H]1CCCN1C(=O)CNC(=O)[C@H](CCCCN)NC(=O)[C@H](Cc1cnc[nH]1)NC(=O)[C@H](CO)NC(=O)[C@H](CC(C)C)NC(=O)[C@H](CCCNC(=N)N)NC(=O)[C@@H]1CCCN1C(=O)[C@H](CCCNC(=N)N)NC(=O)[C@H](CCC(N)=O)NC(=O)[C@H](CCCNC(=N)N)NC(=O)[C@H](CCCNC(=N)N)NC(=O)[C@H](Cc1ccccc1)NC(=O)[C@@H](N)CCCCN)C(=O)N1CCC[C@H]1C(=O)N[C@@H](Cc1ccccc1)C(=O)O |  |  | Activity [6]: Active; Ki [3]: > 100 µM; inhibition [7]: Dose-dependent effect; IC50 [4]: 0.0014 µM; Imax [8]: 85%; half-life at 5 µM [5]: 0.0767 h
4 | CC(=O)NCCCC[C@H](NC(=O)Cc1csc(=N)n1C)C(=O)N[C@@H](Cc1cn(Cc2ccccc2)c[n+]1C)C(=O)NC1CCN(C)CC1 |  | > 100 | 
5 | CCN(CC)c1ccc2c(-c3ccc(S(=O)(=O)NCCCCNCCCC[C@H](NC(=O)Cc4csc(=N)n4C)C(=O)N[C@@H](Cc4cn(Cc5ccccc5)c[n+]4C)C(=O)NC4CCN(C)CC4)cc3S(=O)(=O)O)c3ccc(=[N+](CC)CC)cc-3oc2c1 |  | > 100 | 
6 | CCN(CC)c1ccc2c(-c3ccc(S(=O)(=O)NCCCC[C@H](NC(=O)Cc4csc(=N)[nH]4)C(=O)N[C@@H](Cc4cn(Cc5ccccc5)c[n+]4C)C(=O)NC4CCN(C)CC4)cc3S(=O)(=O)[O-])c3ccc(=[N+](CC)CC)cc-3oc2c1 | inactive | 0.85 | 
7 | CCN(CC)c1ccc2c(-c3ccc(S(=O)(=O)NCCCCCCCCCCCCNC(=O)NCCCC[C@H](NC(=O)Cc4csc(=N)[nH]4)C(=O)N[C@@H](Cc4cn(Cc5ccccc5)cn4)C(=O)NC4CCN(C)CC4)cc3S(=O)(=O)[O-])c3ccc(=[N+](CC)CC)cc-3oc2c1 |  | 9 | 
8 | CCN(CC)c1ccc2c(-c3ccc(S(=O)(=O)NCCCCCCCCCCCCNC(=O)NCCCC[C@H](NC(=O)Cc4csc(=N)n4C)C(=O)N[C@@H](Cc4cn(Cc5ccccc5)cn4)C(=O)NC4CCN(C)CC4)cc3S(=O)(=O)[O-])c3ccc(=[N+](CC)CC)cc-3oc2c1 |  | 1.5 | 
9 | CCN(CC)c1ccc2c(-c3ccc(S(=O)(=O)NCCCC[C@H](NC(=O)Cc4csc(=N)n4C)C(=O)N[C@@H](Cc4cn(Cc5ccccc5)c[n+]4C)C(=O)N[C@@H](C)C(N)=O)cc3S(=O)(=O)O)c3ccc(=[N+](CC)CC)cc-3oc2c1 |  | 0.97 | 
10 | CCN(CC)c1ccc2c(-c3ccc(S(=O)(=O)NCCCCCCCCCCCCNC(=O)NCCCC[C@H](NC(=O)Cc4csc(=N)n4C)C(=O)N[C@@H](Cc4cn(Cc5ccccc5)c[n+]4C)C(=O)NC4CC[N+](C)(C)CC4)cc3S(=O)(=O)O)c3ccc(=[N+](CC)CC)cc-3oc2c1 |  | 1.4 | 
11 | COC(=O)Cc1csc(=N)n1C |  |  | pKa at 2000 µM [9]: 9.77
12 | CCN(CC)c1ccc2c(-c3ccc(S(=O)(=O)NCCCCCCCCCCCCNC(=O)NCCCC[C@H](NC(=O)Cc4csc(=N)n4C)C(=O)N[C@@H](Cc4cn(Cc5ccccc5)c[n+]4C)C(=O)NC4CCN(C)CC4)cc3S(=O)(=O)[O-])c3ccc(=[N+](CC)CC)cc-3oc2c1 | Active |  | inhibition [7]: Dose-dependent effect; Imax [8]: 100%
13 | CCN(CC)c1ccc(C(=C2C=CC(=[N+](CC)CC)C=C2)c2ccc(S(=O)(=O)NCCCC[C@H](NC(=O)Cc3csc(=N)n3C)C(=O)N[C@@H](Cc3cn(Cc4ccccc4)c[n+]3C)C(=O)NC3CCN(C)CC3)cc2S(=O)(=O)[O-])cc1.O=C(O)C(F)(F)F.O=C(O)C(F)(F)F.O=C([O-])C(F)(F)F | inactive | 0.089 | Ki [3]: 98 µM; inhibition [7]: Dose-dependent effect; IC50 [4]: 1.7 µM; Imax [8]: 69%; half-life at 5 µM [5]: > 10 h
14 | CCN(CC)c1ccc2c(-c3ccc(S(=O)(=O)NCCCCCCCCCCCCNC(=O)NCCCC[C@H](NC(=O)Cc4csc(=N)n4C)C(=O)N[C@@H](Cc4cn(Cc5ccccc5)c[n+]4C)C(=O)NC4CCN(C)CC4)cc3S(=O)(=O)O)c3ccc(=[N+](CC)CC)cc-3oc2c1 [listing 2 of 2 here] |  | 0.43 | 
15 | CCN(CC)c1ccc2c(-c3ccc(S(=O)(=O)NCCCC[C@H](NC(=O)Cc4csc(=N)n4C)C(=O)N[C@@H](Cc4cn(Cc5ccccc5)cn4)C(=O)NC4CCN(C)CC4)cc3S(=O)(=O)[O-])c3ccc(=[N+](CC)CC)cc-3oc2c1 | Active | 0.96 | 
16 | CCN(CC)c1ccc2c(-c3ccc(S(=O)(=O)NCCCC[C@H](NC(=O)Cc4csc(=N)n4C)C(=O)N[C@@H](C)C(=O)NC4CCN(C)CC4)cc3S(=O)(=O)[O-])c3ccc(=[N+](CC)CC)cc-3oc2c1 | inactive | 0.45 | 
17 | CCN(CC)c1ccc2c(-c3ccc(S(=O)(=O)NCCCC[C@H](NC(=O)Cc4csc(=N)n4C)C(=O)N[C@@H](Cc4cn(Cc5ccccc5)c[n+]4C)C(=O)NC4CCN(C)CC4)cc3S(=O)(=O)[O-])c3ccc(=[N+](CC)CC)cc-3oc2c1.O=C(O)C(F)(F)F.O=C(O)C(F)(F)F.O=C([O-])C(F)(F)F | Active | 0.4 | Ki [3]: > 1000 µM; inhibition [7]: Dose-dependent effect; IC50 [4]: 3 µM; Imax [8]: 77%; half-life at 5 µM [5]: > 10 h
18 | CCN(CC)c1ccc2c(-c3ccc(S(=O)(=O)NCCCC[C@H](NC(=O)Cc4csc(=N)n4C)C(=O)N[C@@H](Cc4cn(Cc5ccccc5)c[n+]4C)C(=O)NC4CCN(Cc5ccccc5)CC4)cc3S(=O)(=O)[O-])c3ccc(=[N+](CC)CC)cc-3oc2c1 | Active | 0.27 | 
19 | CCN(CC)c1ccc2c(-c3ccc(S(=O)(=O)NCCCCCCNC(=O)NCCCC[C@H](NC(=O)Cc4csc(=N)n4C)C(=O)N[C@@H](Cc4cn(Cc5ccccc5)c[n+]4C)C(=O)NC4CCN(C)CC4)cc3S(=O)(=O)[O-])c3ccc(=[N+](CC)CC)cc-3oc2c1 | Active | 0.31 | 
20 | CCN(CC)c1ccc2c(-c3ccc(S(=O)(=O)NCCCCCCCCCCCCNC(=O)NCCCC[C@H](NC(=O)Cc4csc(=N)n4C)C(=O)N[C@@H](Cc4cn(Cc5ccccc5)cn4)C(=O)NC4CC[N+](C)(C)CC4)cc3S(=O)(=O)O)c3ccc(=[N+](CC)CC)cc-3oc2c1 |  | 3 | 
21 | CCN(CC)c1ccc2c(-c3ccc(S(=O)(=O)NCCCC[C@H](NC(C)=O)C(=O)N[C@@H](Cc4cn(Cc5ccccc5)c[n+]4C)C(=O)NC4CCN(C)CC4)cc3S(=O)(=O)O)c3ccc(=[N+](CC)CC)cc-3oc2c1 |  | 1.2 | 
22 | COC(=O)Cc1csc(N)n1 |  |  | pKa at 2000 µM [9]: 4.83
23 | CCN(CC)c1ccc2c(-c3ccc(S(=O)(=O)NCCCC[C@H](NC(=O)Cc4csc(=N)n4C)C(=O)N[C@@H](Cc4cn(Cc5ccccc5)c[n+]4C)C(=O)NC4CCOCC4)cc3S(=O)(=O)[O-])c3ccc(=[N+](CC)CC)cc-3oc2c1 | inactive | 0.98 | 
